{
  "source": "patent US11160861B2",
  "about": "“Adjuvanting systems and water-free vaccine compositions comprising a polyI:C polynucleotide adjuvant and a lipid-based adjuvant” (priority 2015, dated 2021)",
  "origin": "cited, not measured here",
  "key": {"[1]": {"details": "variety of animal models and Phase I clinical trial in humans (Moyle 2008; Wiedemann 1991)"}, "[2]": {"tested_on": "murine DCs", "details": "in vitro stimulation of murine DCs, small amounts of adjuvant relative to other TLR agonists (Welters 2007)"}},
  "data": [
    {"smiles": "CCCCCCCCCCCCCCCC(=O)N[C@@H](CSC[C@@H](COC(=O)CCCCCCCCCCCCCCC)OC(=O)CCCCCCCCCCCCCCC)C(=O)O", "note": "[Pam3Cys, tripalmitoyl-S-glyceryl-cysteine]", "values": [
      {"measurement": "Side effects", "setting": "[1]", "value": "no reported side effects"},
      {"measurement": "Production of pro-inflammatory cytokines IL-12p40, IL-6 and TNFα", "setting": "[2]", "value": "high levels"}
    ]}
  ]
}
